Where “and” joins values, the source holds several entries; their conditions need not be identical. Equal entries are not always repeated. Entries after “also recorded” stand apart in the source; their conditions may differ.
System: pediatric subjects with acute hypoxemic respiratory failure (AHRF)
Experiment: Pediatric AHRF study, nitric oxide 5 ppm versus placebo: efficacy and subject outcome
Type: in vivo, human
Protocol: This was a prospective, multicenter, randomized, double-blind, placebo-controlled, parallel-group study of the safety and efficacy of inhaled nitric oxide in pediatric subjects with acute hypoxemic respiratory failure (AHRF). The subjects were randomized to receive either 5 ppm inhaled nitric oxide or placebo.
Nitric Oxide for inhalation at 5 ppm was administered continuously into the inspiratory limb of the ventilator circuit in mechanically ventilated subjects using a blinded version of the INOvent® delivery system.
Subjects received 100% treatment gas (nitric oxide 5 ppm or placebo [nitrogen gas]) until Day 28 or extubation, whichever occurred first.
Placebo consisting of 100% Grade 5 nitrogen gas was administered continuously into the inspiratory limb of the ventilator circuit in mechanically ventilated subjects using a blinded version of the INOvent® delivery system at a rate equivalent to a 5 ppm dose of nitric oxide.
This was a prospective, multicenter, randomized, double-blind, placebo-controlled, Phase III study to assess the effects of nitric oxide for inhalation in the treatment of acute hypoxic respiratory failure (AHRF) in pediatric subjects. The study population consisted of male and female pediatric subjects, aged 44 weeks postconceptional age to 16 years age, who were admitted to the pediatric intensive care unit (PICU) and who required intubation because of AHRF. The inclusion/exclusion criteria are described in the Patients section below.
Standardized ventilatory management and weaning procedures were used. Ventilatory management was used based on an “open lung approach” using positive end-expiratory pressure (PEEP) to increase lung volume and limiting tidal volumes to reduce plateau pressures. Subjects received nitric oxide for inhalation at 5 ppm or placebo (100% Grade 5 nitrogen gas) into the inspiratory limb of the ventilator circuit using a blinded version of the INOvent® delivery system. The subjects were treated until Day 28 or extubation, whichever occurred first. Subjects were assessed daily using a spontaneous breathing trial, according to the institution's standard of care. Arterial blood gases (ABG), ventilator settings, methemoglobin, oxygenation index, systolic blood pressure, diastolic blood pressure, Pediatric Risk of Mortality (PRISM) III score, and subject positioning (prone or supine) were performed/recorded at specified times during the study. Selected centers also performed plasma cytokine assays, bronchoalveolar lavage fluid (BALF) assays, and a 6-month follow-up assessment.
Inclusion criteria for patients were as follows: • 1. 44 weeks post-conceptional age to 16 years of age • 2. Oxygenation Index (OI)≥12 cm H2O/mmHg (as determined by two separate measurements taken 30 minutes to 4 hours apart) • 3. Recent chest x-ray (within 24 hours) showing at least unilateral infiltrates • 4. Mechanically ventilated (oral or nasopharyngeal)<7 days
Exclusion criteria for patients were as follows: • 1. Immunocompromised • 2. Received a bone marrow transplant • 3. Active oncological condition • 4. Persistent right to left intracardiac shunt • 5. Cardiovascular surgery within the last 14 days • 6. Status asthmaticus • 7. Decision by primary care physician not to provide full support (futility) • 8. Received treatment with nitric oxide for inhalation or other investigational medications with 24 hours prior to study initiation. • 9. Chronically ventilated • 10. Pregnant Study Design and Schedule of Assessments:
Extubation was considered when: • i. Pressure support of <10 cm H2O • ii. FiO2<0.60 • iii. PEEP<6 cm H2O • iv. Nitric oxide has been discontinued for 30 minutes
Extubation occurred within 12 hours of meeting the above criteria. If a patient met the above criteria but was not extubated within 12 hours, the reason (i.e. airway protection, surgery, secretions clearance, etc.) was documented.

[1] = 5 ppm, discharge evaluation, N 26
[2] = 5 ppm, in words, approached statistical significance

SMILES: [N]=O [Nitric Oxide, nitric oxide]
- completed 28 days of the study or successfully extubated (5 ppm): 21 (80.8%) n (%)
- Days on supplemental O2, Median (5 ppm, N 10): 18.1 days
- Number of days on supplemental O2, Mean (SD) (5 ppm, N 10): 19.6 (13.4) ^ days and 19.6 (13.4) days
- Days originally intubated, Median (5 ppm, N 20): 13.7 days
- Number of days originally intubated, Mean (SD) (5 ppm, N 20): 13.6 (6.8) ^ days and 13.6 (6.8) days
- Days in PICU, Median (5 ppm, N 22): 17.3 days
- Number of days in PICU, Mean (SD) (5 ppm, N 22): 17.8 (8.3) ^ days and 17.8 (8.3) days
- Clinical sepsis [1]: 4 (15.4%) n (%)
- Died (cause of death related to pulmonary condition) [1]: 0 (0) ^ n (%)
- ECMO at any time during treatment [1]: 0 (0) ^ n (%)
- HFOV at any time during treatment [1]: 11 (42.3%) n (%)
- Intubated on Day 28 [1]: 2 (7.7%) n (%)
- Pneumothorax [1]: 3 (11.5%) n (%)
- Receiving supplemental O2 on Day 28 [1]: 11 (42.3%) n (%)
- Survival [1]: 23 (88.5%) n (%)
- VAP (ventilator-associated pneumonia) [1]: 5 (19.2%) n (%)
- days in the PICU versus placebo (5 ppm, in words): lower
- duration (mean number of days) of supplemental oxygen versus placebo (5 ppm, in words): higher
- frequency of extracorporeal membrane oxygenation versus placebo (5 ppm, in words): lower
- frequency of high frequency oscillatory ventilation versus placebo (5 ppm, in words): lower
- frequency of pneumothorax versus placebo (5 ppm, in words): lower
- frequency of ventilator-associated pneumonia at discharge versus placebo (5 ppm, in words): higher
- mean duration (number of days) of intubation versus placebo (5 ppm, in words): lower
- duration of mechanical ventilation (MV) [2]: shortened
- rate of survival [2]: improved
- rate of ECMO free survival versus placebo (5 ppm, in words, listed as iNO): significantly greater; also recorded: significantly higher
- Day 28 (completed 28 days) (5 ppm, n = 26, subject outcome): 1 (3.8%) n (%)
- Death (5 ppm, n = 26, subject outcome): 2 (7.7%) n (%)
- Successful extubation (5 ppm, n = 26, subject outcome): 20 (76.9%) n (%)
- Total discontinued (5 ppm, n = 26, subject outcome): 5 (19.2%) n (%)
- rate of ECMO free survival (5 ppm, placebo 15 of 29, p<0.01): 22 of 24
- Survival at 28 days (5 ppm, placebo 21 of 29, p=0.07): 22 of 24
- survival rate (5 ppm, placebo 72.4%): 88.5%
- oxygenation index (OI) (4 hours, 5 ppm, placebo 26.1+/−19.5, p=0.09): 14.3+/−5.9
- oxygenation index (OI) (12 hours, 5 ppm, placebo 24.5+/−22.0, p=0.04): 14.7+/−6.0
- oxygenation index (OI) (24 hours, 5 ppm, placebo 16.7+/−9.9, p=0.53): 15.2+/−10.8
- number of days that a child is ventilator-free at 28 days after the start of iNO therapy (in words): increased

From patent US10201564B2, “Methods of using inhaled nitric oxide gas for treatment of acute respiratory distress syndrome in children” (Mallinckrodt Hospital Products IP Limited, priority 2014, dated 2019)
